This experiment has as its system pp150-specific T cell clones. Kind of experiment: Chromium release assay with peptide-sensitized EBVLCL and pp150-specific CTL clones (epitope mapping). It is filed as cell-based, human. The settings on record: persons having the indicated HLA allele; target cells sensitized with peptide at 50 μM.

In the case of “QTVTSTPVQGR (listed as Human cytomegalovirus) [SEQ ID NO: 2]”, the “Number of Individuals Tested” value is listed as 2/2.
With “TTVYPPSSTAK (listed as Human cytomegalovirus) [SEQ ID NO: 1]”, the “Number of Individuals Tested” value is on record as 2/2.

Values taken from US6544521B2, “Immunoreactive peptide CTL epitopes of human cytomegalovirus pp150” (City of Hope, priority 2000, dated 2003).
